Results published in PMC7567791 (Scientific Reports, 2020).

Biological target: T1, μ-OR (Homo sapiens, UniProt P35372)
T1 construct: expressed in transfected cells; host or cells: HEK293A parental, ΔGRK2, ΔGRK3, ΔGRK2/3 (and Δβ-arrestin1/2) cells
Type: cell-based

T1 sequence (P35372 whole entry): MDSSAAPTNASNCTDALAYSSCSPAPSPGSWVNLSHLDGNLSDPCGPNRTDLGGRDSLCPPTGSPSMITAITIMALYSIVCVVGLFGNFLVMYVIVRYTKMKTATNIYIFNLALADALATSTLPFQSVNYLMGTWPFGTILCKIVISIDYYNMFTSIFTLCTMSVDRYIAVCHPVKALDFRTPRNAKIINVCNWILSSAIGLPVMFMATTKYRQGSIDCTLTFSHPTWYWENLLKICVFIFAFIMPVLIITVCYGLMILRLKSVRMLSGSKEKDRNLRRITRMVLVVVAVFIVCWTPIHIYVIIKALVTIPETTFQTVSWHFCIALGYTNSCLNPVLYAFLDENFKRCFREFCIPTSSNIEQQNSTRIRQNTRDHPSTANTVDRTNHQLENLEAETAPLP

Q: For `C[C@@H](NC(=O)[C@@H](N)Cc1ccc(O)cc1)C(=O)NCC(=O)N(C)[C@@H](Cc1ccccc1)C(=O)NCCO` [DAMGO, D-Ala(2)-mephe(4)-gly-ol(5))enkephalin], which “time of peak in β-arrestin2 recruitment to μ-OR-EYFP” value is on record?
A: 6 min
